Measured values from patent US6608086B2, “Dihydropyridines and new uses thereof” (Synaptic Pharmaceutical Corporation, priority 1993, dated 2003).
pKi: −log10 of the molar value. Where a name gives a salt, the structure may show the parent alone. Read-outs that look alike come from different tables or passages of the source.

Assays:
α2B receptor = target: T1, α2B receptor (Homo sapiens, UniProt P18089); test: Competition binding, [3H]rauwolscine, human α2B receptor; conditions: pKi alpha-2 2b
T1 construct: host or cells: LM(tk-) cells, line L-NGC-α2B
T1 sequence (P18089 1-450): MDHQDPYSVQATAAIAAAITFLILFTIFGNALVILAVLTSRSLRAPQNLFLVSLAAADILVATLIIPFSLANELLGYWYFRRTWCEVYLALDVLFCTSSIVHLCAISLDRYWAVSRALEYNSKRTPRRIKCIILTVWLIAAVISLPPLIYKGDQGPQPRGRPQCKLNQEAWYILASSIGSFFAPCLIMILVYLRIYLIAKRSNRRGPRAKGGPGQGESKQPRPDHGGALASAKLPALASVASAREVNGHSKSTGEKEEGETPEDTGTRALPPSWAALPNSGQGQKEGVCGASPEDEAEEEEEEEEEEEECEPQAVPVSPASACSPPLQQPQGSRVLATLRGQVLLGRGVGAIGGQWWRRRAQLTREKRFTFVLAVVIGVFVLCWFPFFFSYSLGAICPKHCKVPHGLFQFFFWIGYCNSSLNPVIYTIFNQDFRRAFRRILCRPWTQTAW
In short: (§1)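 LM(tk−) lysates, stable α2A/α2B/α2C transfectants; 25 mM glycylglycine pH 7.6 (RT). [3H]rauwolscine 0.5 nM, equilibrium competition; NSB 10 μM phentolamine. GF/B filtration, cell harvester.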

[1] = target: T2, α1A Human Adrenergic Receptor (Homo sapiens, UniProt P25100); test: Radioligand binding, [3H]prazosin, cloned human α1A adrenergic receptor; conditions: pKi alpha-1 1a
T2 construct: The entire coding region of α1A (1719 bp); expressed in transfected cells
T2 sequence (P25100 1-572): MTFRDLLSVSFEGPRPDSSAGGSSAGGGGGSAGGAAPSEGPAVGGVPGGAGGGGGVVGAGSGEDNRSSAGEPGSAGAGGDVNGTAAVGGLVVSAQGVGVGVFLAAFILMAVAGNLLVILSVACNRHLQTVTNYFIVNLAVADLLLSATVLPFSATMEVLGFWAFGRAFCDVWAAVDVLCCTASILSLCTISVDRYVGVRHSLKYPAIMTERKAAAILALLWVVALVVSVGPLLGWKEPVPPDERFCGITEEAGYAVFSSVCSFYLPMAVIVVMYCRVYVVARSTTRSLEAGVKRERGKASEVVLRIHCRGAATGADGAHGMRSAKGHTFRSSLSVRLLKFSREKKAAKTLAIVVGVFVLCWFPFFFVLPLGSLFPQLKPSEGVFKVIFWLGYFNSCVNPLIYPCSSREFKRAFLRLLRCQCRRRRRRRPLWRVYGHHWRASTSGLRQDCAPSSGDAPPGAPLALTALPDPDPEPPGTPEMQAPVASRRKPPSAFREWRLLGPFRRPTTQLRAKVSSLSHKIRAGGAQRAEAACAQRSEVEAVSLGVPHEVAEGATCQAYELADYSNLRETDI
In short: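 Membranes from LM(tk−) cells transfected with human α1A were incubated with 0.5 nM [3H]prazosin in 50 mM Tris-HCl, 1 mM MgCl2, 0.1% ascorbic acid, pH 7.5, for 20 min at 37° C. Nonspecific binding was defined with 10 μM phentolamine. Bound ligand was separated by GF/B filtration.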

α2C receptor = target: T3, α2C receptor (Homo sapiens, UniProt P18825); test: Competition binding, [3H]rauwolscine, human α2C receptor; conditions: for pKi: pKi alpha-2 2c; for Ki: LM(tk-) cell line L-α2C, SEM and n in lines below, read-out: pKi alpha-2 2c (converted)
T3 construct: host or cells: LM(tk-) cells, line L-α2C
T3 sequence (P18825 1-462): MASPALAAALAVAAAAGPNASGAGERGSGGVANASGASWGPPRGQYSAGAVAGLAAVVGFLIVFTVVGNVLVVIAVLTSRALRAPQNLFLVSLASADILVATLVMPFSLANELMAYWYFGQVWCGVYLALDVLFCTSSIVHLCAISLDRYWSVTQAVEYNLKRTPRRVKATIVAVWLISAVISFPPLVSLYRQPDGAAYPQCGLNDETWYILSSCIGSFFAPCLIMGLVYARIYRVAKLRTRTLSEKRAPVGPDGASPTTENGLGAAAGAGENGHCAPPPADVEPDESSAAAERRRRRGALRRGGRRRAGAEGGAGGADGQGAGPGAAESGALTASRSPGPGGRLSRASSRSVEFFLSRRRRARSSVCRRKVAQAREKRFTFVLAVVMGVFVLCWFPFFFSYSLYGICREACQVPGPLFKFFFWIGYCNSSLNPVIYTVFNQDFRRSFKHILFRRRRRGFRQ
In short: as §1

[2] = [3H]rauwolscine, human α2B receptor, LM(tk−) cells
[3] = [3H]prazosin, cloned human α1A receptor, LM(tk−) cell membranes
[4] = [3H]rauwolscine, human α2C receptor, LM(tk−) cells
[5] = [3H]rauwolscine, LM(tk-) cell line L-NGC-α2B, SEM and n in lines below
[6] = [3H]prazosin, cloned human receptor in LM(tk-) cell membranes, SEM and n in lines below

CCC1=C(C(N)=O)C(c2ccc([N+](=O)[O-])cc2)C(C(=O)NCCCN2CCC(C#N)(c3ccccc3)CC2)=C(CC)N1 (racemic) [(±)-102, 5-Carboxamido-3-{N-[(4-cyano-4-phenylpiperidin-1-ly)propyl]carboxamido-2,6-diethyl-1,4-dihydro-4-(4-nitrophenyl)pyridine hydrochloride hydrate]
pKi (α2B receptor; [2]): 5.99
pKi [1, 3]: 5.46
pKi (α2C receptor; [4]): 5.76

CCC1=C(C(N)=O)C(c2ccc([N+](=O)[O-])cc2)C(C(=O)NCCCN2CCC(C#N)(c3ccccc3)CC2)=C(CC)N1 (single isomer, unassigned; (+)) [(+)-102]
pKi (α2B receptor; [2]): 5.72
pKi [1, 3]: 5.54
pKi (α2C receptor; [4]): 5.48

CCC1=C(C(N)=O)C(c2ccc([N+](=O)[O-])cc2)C(C(=O)NCCCN2CCC(C#N)(c3ccccc3)CC2)=C(CC)N1 (single isomer, unassigned; (-)) [(−)-102]
pKi (α2B receptor; [2]): 6.23
pKi [1, 3]: 5.17
pKi (α2C receptor; [4]): 5.98

COC(=O)C1=C(C)NC(C)=C(C(=O)NCCCN2CCC(c3ccccc3)(c3ccccc3)CC2)C1c1ccc(C(F)(F)F)cc1 (stereo not drawn) [Example 1]
pKi (α2B receptor): 5.48
pKi [1]: 5.59
pKi (α2C receptor): 6.77

CCC1=C(C(=O)NCCCN2CCC(c3ccccc3)(c3ccccc3)CC2)C(c2ccc([N+](=O)[O-])cc2)C(C(=O)OCc2ccccc2)=C(C)N1 (stereo not drawn) [Example 4, 5-Benzyloxycarbonyl-2-ethyl-1,4-dihydro-6-methyl-4-(4-nitrophenyl)-3-(N-(3-(4,4-diphenylpiperidin-1-yl)propyl)carboxamido) pyridine, Hydrochloride Salt, Hydrate]
pKi (α2B receptor; [5]): 5.99
pKi [1, 6]: 6.71
Ki (α2C receptor; [3H]rauwolscine): 501 nM

COC(=O)C1=C(C)NC(C)=C(C(=O)NCCCN2CCC(c3ccccc3)(c3ccccc3)CC2)C1c1ccncc1 (stereo not drawn) [Example 5, 1,4-Dihydro-5-methoxycarbonyl-2,6-dimethyl-3-(N-(3-(4,4-diphenylpiperidin-1-yl)propyl)carboxamido)-4-(4-pyridyl)pyridine]
pKi (α2B receptor): 5.67
pKi [1]: 5.74
pKi (α2C receptor): 4.61

COC(=O)C1=C(C)NC(C)=C(C(=O)NCCCN2CCC(c3ccccc3)(c3ccccc3)CC2)C1C1CCCCC1 (stereo not drawn) [Example 6]
pKi (α2B receptor): 6.35
pKi [1]: 5.95
pKi (α2C receptor): 6.62

COC(=O)C1=C(C)NC(C)=C(C(=O)NCCCN2CCC(c3ccccc3)(c3ccccc3)CC2)C1c1ccc(-c2ccccc2)cc1 (stereo not drawn) [Example 7]
pKi (α2B receptor): 5.79
pKi [1]: 5.93
pKi (α2C receptor): 5.91

COC(=O)C1=C(C)NC(C)=C(C(=O)NCCCN2CCC(c3ccccc3)(c3ccccc3)CC2)C1Cc1ccccc1 (stereo not drawn) [Example 8, 4-Benzyl-1,4-dihydro-3-methoxycarbonyl-2,6-dimethyl-5-(N-(3-(4,4-diphenylpiperidin-1-yl)propyl)carboxamido)pyridine]
pKi (α2B receptor; [5]): 5.73
pKi [1, 6]: 6.42
Ki (α2C receptor; [3H]rauwolscine): 339 nM

COC(=O)C1=C(C)NC(C)=C(C(=O)NCCCN2CCC(c3ccccc3)(c3ccccc3)CC2)C1c1cc[n+]([O-])cc1 (stereo not drawn) [Example 9, 1,4-Dihydro-3-methoxycarbonyl-2,6-Dimethyl-4-(1-oxido-4-pyridyl)-5-(N-(3-(4,4-diphenylpiperidin-1-yl)propyl)carboxamido)pyridine]
pKi (α2B receptor; [5]): 6.26
pKi [1, 6]: 5.77
Ki (α2C receptor; [3H]rauwolscine): 1320 nM

COC(=O)C1=C(C)NC(C)=C(C(=O)NCCCN2CCC(c3ccccc3)(c3ccccc3)CC2)C1c1ccc(Cl)cc1 (stereo not drawn) [Example 10, 4-(4-Chlorophenyl)-1,4-dihydro-5-methoxycarbonyl-2,6-Dimethyl-5-(N-(3-(4,4-diphenylpiperidin-1-yl)propyl)carboxamido)pyridine]
pKi (α2B receptor): 5.48
pKi [1]: 6.35
pKi (α2C receptor): 5.91

COC(=O)C1=C(C)NC(C)=C(C(=O)NCCCN2CCC(c3ccccc3)(c3ccccc3)CC2)C1c1ccc2c(c1)OCO2 (stereo not drawn) [Example 11, 1,4-Dihydro-3-methoxycarbonyl-2,6-dimethyl-4-(3,4-methylenedioxyphenyl)-5-(N-(3-(4,4-diphenylpiperidin-1-yl)propyl)carboxamido)pyridine]
pKi (α2B receptor): 6.06
pKi [1]: 6.52
pKi (α2C receptor): 6.24

COC(=O)C1=C(C)NC(C)=C(C(=O)NCCCN2CCC(c3ccccc3)(c3ccccc3)CC2)C1c1ccc(C#N)cc1 (stereo not drawn) [Example 12, 4-(4-Cyanophenyl)-1,4-dihydro-3-methoxycarbonyl-2,6-dimethyl-5-(N-(3-(4,4-diphenylpiperidin-1-yl)propyl)carboxamido)pyridine]
pKi (α2B receptor): 5.90
pKi [1]: 6.42
pKi (α2C receptor): 6.06

COC(=O)C1=C(C)NC(C)=C(C(=O)NCCCN2CCC(c3ccccc3)(c3ccccc3)CC2)C1c1ccc(I)cc1 (stereo not drawn) [Example 13, 1,4-Dihydro-4-(4-iodophenyl)-3-methoxycarbonyl-2,6-dimethyl-5-(N-(3-(4,4-diphenylpiperidin-1-yl)propyl)carboxamido)pyridine]
pKi (α2B receptor): 5.76
pKi [1]: 6.41
pKi (α2C receptor): 6.19

COC(=O)C1=C(C)NC(C)=C(C(=O)NCCCN2CCC(c3ccccc3)(c3ccccc3)CC2)C1c1cccnc1 (stereo not drawn) [Example 14, 1,4-Dihydro-3-methoxycarbonyl-2.6-dimethyl-5-(N-(3-(4,4-diphenylpiperidin-1-yl)propyl)carboxamido)-4-(3-pyridyl)pyridine]
pKi (α2B receptor; [5]): 5.87
pKi [1, 6]: 5.39
Ki (α2C receptor; [3H]rauwolscine): 1100 nM

COC(=O)C1=C(C)NC(C)=C(C(=O)NCCCN2CCC(c3ccccc3)(c3ccccc3)CC2)C1c1ccc(Br)cc1 (stereo not drawn) [Example 15, 4-(4-Bromophenyl)-1,4-dihydro-3-methoxycarbonyl-2,6-dimethyl-5-(N-(3-(4,4-diphenylpiperidin-1-yl)propyl)carboxamido)pyridine]
pKi (α2B receptor): 5.47
pKi [1]: 6.38
pKi (α2C receptor): 5.95

COC(=O)C1=C(C)NC(C)=C(C(=O)NCCCN2CCC(c3ccccc3)(c3ccccc3)CC2)C1c1ccc(Cl)c([N+](=O)[O-])c1 (stereo not drawn) [Example 16, 4-(4-Chloro-3-nitrophenyl)-1,4-dihydro-3-methoxycarbonyl-2,6-dimethyl-5-(N-(3-(4,4-diphenylpiperidin-1-yl)propyl)carboxamido)pyridine]
pKi (α2B receptor): 5.74
pKi [1]: 6.37
pKi (α2C receptor): 6.42

COC(=O)C1=C(C)NC(C)=C(C(=O)NCCCN2CCC(c3ccccc3)(c3ccccc3)CC2)C1c1ccc(C(C)C)cc1 (stereo not drawn) [Example 18, 1,4-Dihydro-4-(4-isopropylphenyl)-3-methoxycarbonyl-2,6-dimethyl-5-(N-(3-(4,4-diphenylpiperidin-1-yl)propyl)carboxamido)pyridine]
pKi (α2B receptor): 5.79
pKi [1]: 6.05
pKi (α2C receptor): 6.03

COC(=O)C1=C(C)NC(C)=C(C(=O)NCCCN2CCC(c3ccccc3)(c3ccccc3)CC2)C1c1ccc(C)cc1 (stereo not drawn) [Example 19, 1,4-Dihydro-3-methoxycarbonyl-1,6-dimethyl-4-(4-methylphenyl)-5-(N-(3-(4,4-diphenylpiperidin-1-yl)propyl)carboxamido)pyridine]
pKi (α2B receptor): 6.04
pKi [1]: 6.50
pKi (α2C receptor): 6.38
